Measurements: ChEMBL document CHEMBL4507268 (2021)

How the values were obtained:
Conditions in all cases: Compound concentration 1.0 uM
[1] = molecular target: T1, Cyclin-dependent kinase-like 2 (Homo sapiens) (UniProt Q92772)
T1 sequence (whole entry): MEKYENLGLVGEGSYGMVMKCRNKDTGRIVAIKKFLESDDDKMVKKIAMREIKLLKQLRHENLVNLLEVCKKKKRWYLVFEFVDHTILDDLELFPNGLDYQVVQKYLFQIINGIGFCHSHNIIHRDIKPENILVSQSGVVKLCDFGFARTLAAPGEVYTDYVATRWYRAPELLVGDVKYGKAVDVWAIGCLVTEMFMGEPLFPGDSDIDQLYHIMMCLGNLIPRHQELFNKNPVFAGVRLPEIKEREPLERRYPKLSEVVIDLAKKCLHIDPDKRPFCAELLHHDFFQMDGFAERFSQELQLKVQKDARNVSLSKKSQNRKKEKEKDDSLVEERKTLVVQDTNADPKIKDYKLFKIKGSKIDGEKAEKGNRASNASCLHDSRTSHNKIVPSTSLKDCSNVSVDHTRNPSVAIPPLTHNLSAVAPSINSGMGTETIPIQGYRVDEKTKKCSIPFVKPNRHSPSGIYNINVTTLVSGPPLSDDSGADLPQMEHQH

[2] = molecular target: Cyclin-dependent kinase-like 3 (Homo sapiens) (UniProt Q8IVW4)
Chain of Cyclin-dependent kinase-like 3 (Homo sapiens) (Q8IVW4 whole entry, looked up): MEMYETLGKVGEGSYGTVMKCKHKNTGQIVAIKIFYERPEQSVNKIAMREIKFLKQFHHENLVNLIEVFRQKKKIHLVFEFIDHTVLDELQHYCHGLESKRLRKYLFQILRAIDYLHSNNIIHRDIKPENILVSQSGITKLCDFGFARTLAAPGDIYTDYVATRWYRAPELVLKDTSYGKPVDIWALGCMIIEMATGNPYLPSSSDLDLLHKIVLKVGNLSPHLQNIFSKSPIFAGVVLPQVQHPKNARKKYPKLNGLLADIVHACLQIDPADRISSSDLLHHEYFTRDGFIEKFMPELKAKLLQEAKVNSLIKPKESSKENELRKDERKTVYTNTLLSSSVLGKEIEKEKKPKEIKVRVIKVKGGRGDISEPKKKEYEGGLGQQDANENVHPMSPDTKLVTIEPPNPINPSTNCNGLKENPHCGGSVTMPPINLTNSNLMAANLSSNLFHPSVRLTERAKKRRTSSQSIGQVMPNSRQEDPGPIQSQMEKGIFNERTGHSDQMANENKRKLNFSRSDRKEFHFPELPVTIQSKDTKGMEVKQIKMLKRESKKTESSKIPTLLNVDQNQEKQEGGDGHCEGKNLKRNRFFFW

[3] = molecular target: RAF proto-oncogene serine/threonine-protein kinase (Homo sapiens) (UniProt P04049)
Chain of RAF proto-oncogene serine/threonine-protein kinase (Homo sapiens) (P04049 whole entry): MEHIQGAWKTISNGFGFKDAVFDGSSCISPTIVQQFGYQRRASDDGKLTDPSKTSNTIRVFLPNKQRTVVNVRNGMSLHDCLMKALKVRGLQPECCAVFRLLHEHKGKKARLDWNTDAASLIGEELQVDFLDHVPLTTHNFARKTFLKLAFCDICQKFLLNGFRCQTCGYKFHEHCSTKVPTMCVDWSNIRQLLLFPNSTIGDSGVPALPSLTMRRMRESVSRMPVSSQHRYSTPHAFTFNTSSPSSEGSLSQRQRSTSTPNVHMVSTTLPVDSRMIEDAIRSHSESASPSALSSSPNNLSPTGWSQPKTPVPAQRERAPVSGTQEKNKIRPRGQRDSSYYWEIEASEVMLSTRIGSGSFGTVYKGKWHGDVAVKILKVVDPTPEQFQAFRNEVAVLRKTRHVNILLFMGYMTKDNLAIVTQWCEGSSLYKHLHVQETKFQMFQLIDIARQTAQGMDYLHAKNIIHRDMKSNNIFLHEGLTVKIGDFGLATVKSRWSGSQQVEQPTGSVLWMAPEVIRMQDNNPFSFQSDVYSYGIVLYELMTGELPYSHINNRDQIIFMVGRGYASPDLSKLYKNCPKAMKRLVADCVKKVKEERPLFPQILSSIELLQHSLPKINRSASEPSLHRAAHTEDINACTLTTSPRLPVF

[4] = molecular target: Vascular endothelial growth factor receptor 1 (Homo sapiens) (UniProt P17948)
Chain of Vascular endothelial growth factor receptor 1 (Homo sapiens) (P17948 whole entry): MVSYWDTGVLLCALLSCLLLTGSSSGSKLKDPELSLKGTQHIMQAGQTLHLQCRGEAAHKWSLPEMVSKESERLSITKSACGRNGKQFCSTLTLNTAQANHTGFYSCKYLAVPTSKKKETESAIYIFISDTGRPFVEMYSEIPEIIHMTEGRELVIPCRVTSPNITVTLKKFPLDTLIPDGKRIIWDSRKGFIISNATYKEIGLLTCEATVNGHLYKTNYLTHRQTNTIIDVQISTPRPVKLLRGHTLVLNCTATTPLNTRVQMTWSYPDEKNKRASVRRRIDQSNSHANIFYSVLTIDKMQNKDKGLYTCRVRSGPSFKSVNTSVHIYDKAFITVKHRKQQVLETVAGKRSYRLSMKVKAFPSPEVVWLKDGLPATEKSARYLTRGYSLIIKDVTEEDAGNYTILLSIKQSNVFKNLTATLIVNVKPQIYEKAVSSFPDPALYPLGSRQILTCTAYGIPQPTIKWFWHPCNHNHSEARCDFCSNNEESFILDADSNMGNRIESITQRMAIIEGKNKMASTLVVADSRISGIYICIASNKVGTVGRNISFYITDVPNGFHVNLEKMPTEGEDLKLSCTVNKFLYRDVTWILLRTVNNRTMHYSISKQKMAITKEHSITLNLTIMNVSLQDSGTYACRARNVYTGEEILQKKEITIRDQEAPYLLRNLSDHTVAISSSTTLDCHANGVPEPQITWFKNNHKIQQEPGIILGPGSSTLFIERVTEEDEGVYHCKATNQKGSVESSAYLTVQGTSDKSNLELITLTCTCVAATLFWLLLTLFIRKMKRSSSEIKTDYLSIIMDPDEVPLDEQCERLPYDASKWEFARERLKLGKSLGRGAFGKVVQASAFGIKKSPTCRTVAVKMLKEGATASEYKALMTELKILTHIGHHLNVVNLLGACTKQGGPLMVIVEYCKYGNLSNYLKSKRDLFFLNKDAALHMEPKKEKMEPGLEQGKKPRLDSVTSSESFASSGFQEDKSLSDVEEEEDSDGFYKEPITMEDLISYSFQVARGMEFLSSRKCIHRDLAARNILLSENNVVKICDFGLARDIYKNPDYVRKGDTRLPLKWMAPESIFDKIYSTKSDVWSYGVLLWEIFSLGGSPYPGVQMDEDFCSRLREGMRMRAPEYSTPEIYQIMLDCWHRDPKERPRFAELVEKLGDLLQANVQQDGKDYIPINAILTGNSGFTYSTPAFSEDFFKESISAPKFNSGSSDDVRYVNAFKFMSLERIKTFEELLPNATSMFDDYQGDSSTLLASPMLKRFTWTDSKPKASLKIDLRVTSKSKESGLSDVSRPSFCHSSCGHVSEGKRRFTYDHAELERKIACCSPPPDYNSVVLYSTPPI

[5] = molecular target: Insulin receptor (Homo sapiens) (UniProt P06213)
[6] = molecular target: T2, Serine/threonine-protein kinase MAK (Homo sapiens) (UniProt P20794)
T2 sequence (whole entry): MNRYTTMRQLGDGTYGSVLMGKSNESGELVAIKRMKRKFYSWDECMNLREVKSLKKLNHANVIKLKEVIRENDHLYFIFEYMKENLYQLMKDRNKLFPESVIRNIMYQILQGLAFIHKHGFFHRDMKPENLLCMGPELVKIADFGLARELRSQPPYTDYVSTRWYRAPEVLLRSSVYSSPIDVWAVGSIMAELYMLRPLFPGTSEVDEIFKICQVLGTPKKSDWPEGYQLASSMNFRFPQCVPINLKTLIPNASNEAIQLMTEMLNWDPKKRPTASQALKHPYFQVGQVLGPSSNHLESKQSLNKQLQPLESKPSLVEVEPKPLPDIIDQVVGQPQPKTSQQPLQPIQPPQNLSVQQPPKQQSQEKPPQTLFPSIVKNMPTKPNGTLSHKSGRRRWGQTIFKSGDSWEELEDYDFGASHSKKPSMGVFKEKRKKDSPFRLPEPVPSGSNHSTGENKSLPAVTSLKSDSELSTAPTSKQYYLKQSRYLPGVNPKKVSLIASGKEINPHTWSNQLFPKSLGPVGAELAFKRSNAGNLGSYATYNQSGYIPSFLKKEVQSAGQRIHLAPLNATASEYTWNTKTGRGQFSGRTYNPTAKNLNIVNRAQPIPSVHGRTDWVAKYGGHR

[7] = molecular target: T3, MAP/microtubule affinity-regulating kinase 4 (Homo sapiens) (UniProt Q96L34)
T3 sequence (whole entry): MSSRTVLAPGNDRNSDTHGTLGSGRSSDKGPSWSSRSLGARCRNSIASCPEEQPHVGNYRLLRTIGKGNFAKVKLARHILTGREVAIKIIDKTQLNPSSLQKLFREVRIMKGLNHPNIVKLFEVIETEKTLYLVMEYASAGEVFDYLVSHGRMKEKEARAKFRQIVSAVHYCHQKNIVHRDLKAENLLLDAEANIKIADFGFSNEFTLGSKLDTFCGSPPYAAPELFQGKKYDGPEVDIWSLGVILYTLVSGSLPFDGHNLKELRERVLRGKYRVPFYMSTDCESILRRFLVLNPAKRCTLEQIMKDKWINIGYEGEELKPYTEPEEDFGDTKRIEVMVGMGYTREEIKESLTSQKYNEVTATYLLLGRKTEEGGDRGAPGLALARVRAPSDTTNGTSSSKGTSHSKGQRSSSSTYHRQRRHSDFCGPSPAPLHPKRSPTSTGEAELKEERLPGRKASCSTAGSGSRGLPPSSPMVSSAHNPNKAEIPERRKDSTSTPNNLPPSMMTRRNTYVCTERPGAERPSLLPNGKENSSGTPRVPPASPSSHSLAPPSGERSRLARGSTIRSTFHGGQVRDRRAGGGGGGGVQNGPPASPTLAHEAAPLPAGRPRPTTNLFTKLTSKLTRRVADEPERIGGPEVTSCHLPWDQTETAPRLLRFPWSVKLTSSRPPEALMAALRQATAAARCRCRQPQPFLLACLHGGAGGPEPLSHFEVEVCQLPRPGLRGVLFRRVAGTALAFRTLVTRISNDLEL

[8] = molecular target: Tau-tubulin kinase 1 (Homo sapiens) (UniProt Q5TCY1)
Chain of Tau-tubulin kinase 1 (Homo sapiens) (Q5TCY1 whole entry): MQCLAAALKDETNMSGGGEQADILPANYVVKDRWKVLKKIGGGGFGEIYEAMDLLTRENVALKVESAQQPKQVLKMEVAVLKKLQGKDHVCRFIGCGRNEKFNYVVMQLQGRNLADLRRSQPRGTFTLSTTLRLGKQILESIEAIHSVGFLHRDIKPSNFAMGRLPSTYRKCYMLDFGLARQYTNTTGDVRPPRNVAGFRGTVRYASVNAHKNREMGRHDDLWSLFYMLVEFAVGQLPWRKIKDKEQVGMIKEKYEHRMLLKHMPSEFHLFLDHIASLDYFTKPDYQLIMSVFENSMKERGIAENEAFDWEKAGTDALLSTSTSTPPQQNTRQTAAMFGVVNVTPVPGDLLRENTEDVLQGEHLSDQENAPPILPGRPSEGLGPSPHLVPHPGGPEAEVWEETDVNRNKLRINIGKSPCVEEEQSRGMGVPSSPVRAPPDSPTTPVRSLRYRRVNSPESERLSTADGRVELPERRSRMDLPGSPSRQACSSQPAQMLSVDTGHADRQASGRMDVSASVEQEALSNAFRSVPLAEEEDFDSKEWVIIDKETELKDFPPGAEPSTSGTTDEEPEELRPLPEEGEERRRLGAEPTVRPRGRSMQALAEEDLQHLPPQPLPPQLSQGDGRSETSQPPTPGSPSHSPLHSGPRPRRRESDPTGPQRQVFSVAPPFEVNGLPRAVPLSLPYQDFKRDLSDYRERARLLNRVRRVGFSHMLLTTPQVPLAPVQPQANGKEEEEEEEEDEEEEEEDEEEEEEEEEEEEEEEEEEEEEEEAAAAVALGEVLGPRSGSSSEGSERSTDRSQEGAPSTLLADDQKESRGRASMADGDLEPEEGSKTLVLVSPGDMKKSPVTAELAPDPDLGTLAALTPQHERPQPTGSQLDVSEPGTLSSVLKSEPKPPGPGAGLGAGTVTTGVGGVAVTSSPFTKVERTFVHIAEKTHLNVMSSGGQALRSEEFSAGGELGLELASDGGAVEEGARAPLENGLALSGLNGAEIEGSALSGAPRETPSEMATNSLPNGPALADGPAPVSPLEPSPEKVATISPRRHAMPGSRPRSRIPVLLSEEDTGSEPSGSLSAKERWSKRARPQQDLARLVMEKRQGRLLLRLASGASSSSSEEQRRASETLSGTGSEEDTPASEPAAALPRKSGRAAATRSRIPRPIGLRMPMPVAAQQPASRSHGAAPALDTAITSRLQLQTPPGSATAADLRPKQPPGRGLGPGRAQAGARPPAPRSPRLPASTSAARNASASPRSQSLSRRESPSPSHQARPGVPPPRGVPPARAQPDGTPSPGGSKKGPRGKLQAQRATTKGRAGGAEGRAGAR

Measured: % residual kinase activity

CN1CCN(c2cnc3c(C4CCN(C(=O)c5ccc(OC(F)(F)F)cc5N)CC4)ncnc3c2)CC1 [BAY-885]
inactive: [1] 96% | [2] 113% | [3] 107% | [4] 108% | [5] 107% | [6] 125% | [7] 100% | [8] 95%
